Data from patent publication US5494932A, “Sulfonic stilbene derivatives in the treatment of viral disease” (Merrell Dow Pharmaceuticals Inc., priority 1991, dated 1996).
Read-outs that look alike come from different tables or passages of the source.

Tests used:
[1] = system: HIV-1 strain GB8 in JM cells; test: Acute HIV-1 (GB8) infection of JM cells: syncytial counts and p24 antigen; assay type: cell-based, HIV-1 (human T cell line JM); details: for Mean Syncytial Counts: at day 4 p.i.
Description: When evaluated in the human T cell line JM acutely infected with the GB8 virus, DIDS, H2 DIDS and SITS (Table I) suppressed virus-induced multinucleated giant cell formation (syncytia). […] We also examined the antiviral properties of these compounds in a second host-cell/virus system, i.e., the highly CD4+ C8166 cells infected with the Haitian strain of HIV-1, RF.
The cell lines used were the semi-mature human lymphoblastoid leukemia T cell line JM, the human T-lymphoblastoid C8166 cell line, the human cutaneous T cell lymphoma line H9 and, the human T cell transformed line MT-4. Stocks of HIV-1 strains RF and GB8 (kindly provided by Dr. Graham Farrar, Center for Applied Microbiological Research, Porton Dawn, England) were prepared from chronically infected H9 cells and acutely infected JM cells, respectively. Virus stocks consisted of cell-free growth medium (RPMI 1640 plus 10% fetal calf serum) containing freshly shed virus. Virus titres were determined by a standard plaque reduction assay.
Virus stocks (strains RF or GB8) were diluted into growth medium containing various concentrations of DIDS, H2 DIDS or SITS. The required number of cells were then immediately added and the virus allowed to absorb for 2 hours at 37° C. to give a multiplicity of infection (MOI) of 0.001 infectious units/cell. The virus-infected cells were pelleted, washed three times in phosphate buffered saline (PBS), and resuspended in fresh growth medium containing the appropriate concentrations of stilbene disulfonic acids. Cells were then distributed into 24-well culture plates (Falcon) and assayed as described below for virus infection. Alternatively, cells were first infected with HIV-1 (strains RF or GB8) for 2 hours at 37° C. at the above MOI. After extensive washing, cells were replated into fresh growth medium containing various concentrations of stilbene disulfonic acids. In the above experiments, syncytia were scored between 2 and 4 days postinfection (p.i.) in triplicate using an Olympus CK2 inverted microscope. The culture fluids were recovered between 3 and 5 days p.i., clarified by low speed centrifugation (2,000 rpm) for 5 minutes and the level of HIV-1 p24 core antigen in the supernatants was determined by p24 antigen ELISA (Coulter). The concentrations of stilbene disulfonic acids giving 50% inhibition of HIV-1 growth (IC50) were determined from the dose-response curves by linear regression analysis.
Protocol: JM cells were infected with HIV-1 to give a multiplicity of infection of 0.001. Virus adsorption was for 2 hours at room temperature. The cells were washed and distributed into wells containing different concentrations of test compounds and incubated. After 2 days the cells were observed and syncytia were counted. The cell-free supernatant fluids were harvested at 4 and 6 days post infection and assayed for levels of p24 viral core antigen and after 6 days the supernatants were also titrated to determine levels of infectivity.

[2] = system: virus-induced cell fusion (gp120-CD4 dependent); test: Cell fusion after pretreatment of uninfected C8166 cells, washing and mixing with chronically infected H9 cells; assay type: cell-based, HIV-1; human H9 and C8166 cells; details: 100 μg/ml; overnight pretreatment, washed; 6 hour observation
Experimental: In the next experiments, CD4+ C8166 cells were pretreated overnight with either DIDS (100 μg/ml), SITS (100 μg/ml) or drug-free medium. Unabsorbed compounds were removed by repeated washings and chronically infected H9 cells were then added. […] Thus, cell washing prior to mixing with the H9 cells oblated the protective effect observed above (FIG. 1, Panel E) when 500,000 MW dextran sulfate was continually present in the assay.
Pretreatment of CD4+ C8166 cells with DIDS blocks fusion with chronically infected H9 cells. In this experiment, C8166 cells were pretreated overight with various stilbene disulfonic acids or drug-free medium (fusion control). The cells were washed, incubated with chronically infected H9 cells and syncytia were photographed at 6 hours post-mixing. Pretreatment conditions were as follows: […]: 100 μg/ml SITS; FIG. 2B: drug-free medium; and FIG. 2C: 100 μg/ml DIDS.
In pretreatment experiments, CD4^+ C8166 cells were maintained in serum-free medium (RPMI 1640 plus human transferrin 50 μg/ml, bovine insulin 20 μg/ml, bovine serum albumin 2 mg/ml) and were exposed to compound by overnight incubation. Treated cells were washed twice in fresh serum-free medium and then cocultured with chronically infected H9 cells in serum-free medium. Otherwise, cell numbers, assay conditions and scoring of syncytia were as described above.
Protocol: C8166 cells were pretreated for 2.5 hours with either DIDS, SITS or H2 DIDS (at 500 and 250 μg/ml). The cells were then washed three times and mixed with H9 cells chronically infected with HIV-1. Cell fusion was quantified after 4 and 24 hours.

HSV 2 = test: Plaque reduction assay, HSV 2; assay type: cell-based
Experimental: Protocol: Plaque reduction assay. Treatment after adsorption during incubation.

[3] = JM cells acutely infected with GB8

For `CC(=O)Nc1ccc(C=Cc2ccc(N=C=S)cc2S(=O)(=O)O)c(S(=O)(=O)O)c1` [SITS, 4-acetamido-4'-isothiocyanatostilbene-2,2'-disulfonic acid], the “Mean Syncytial Counts 2 Days p.i.” value ([1]; 3 μg/ml) was 93, the “Mean Syncytial Counts” value ([1]; 6 μM) was 93 and the “Mean Syncytial Counts 2 Days p.i.” value ([1]; 6 μg/ml) was 72. The “Mean Syncytial Counts” value ([1]; 12 μM) was 72, the “Mean Syncytial Counts 2 Days p.i.” value ([1]; 12.5 μg/ml) was 63 and the “p24 4 days p.i.” value ([1]; 12.5 μg/ml) was 185000 pg/mL. For the same compound, the “p24 6 days p.i.” value ([1]; 12.5 μg/ml) was 1.51 × 10^6 pg/m, the “Mean Syncytial Counts” value ([1]; 25 μM) was 63 and the “Mean Syncytial Counts 2 Days p.i.” value ([1]; 25 μg/ml) was 63. For the same compound, the “p24 4 days p.i.” value ([1]; 25 μg/ml) was 153000 pg/mL, the “p24 6 days p.i.” value ([1]; 25 μg/ml) was 1.26 × 10^6 pg/m and the “Mean Syncytial Counts” value ([1]; 50 μM) was 63. For the same compound, the “Mean Syncytial Counts 2 Days p.i.” value ([1]; 50 μg/ml) was 15, the “p24 4 days p.i.” value ([1]; 50 μg/ml) was 62500 pg/mL and the “p24 6 days p.i.” value ([1]; 50 μg/ml) was 2.45 × 10^5 pg/m. The “Mean Syncytial Counts” value ([1]; 100 μM) was 15, the “Mean Syncytial Counts 2 Days p.i.” value ([1]; 100 μg/ml) was 0 and the “p24 4 days p.i.” value ([1]; 100 μg/ml) was 1140 pg/mL. For the same compound, the “p24 6 days p.i.” value ([1]; 100 μg/ml) was 2.2 × 10^4 pg/m, the “Mean Syncytial Counts” value ([1]; 200 μM) was 0 and the activity at 25 µg/mL ([1]; Human immunodeficiency virus 1, 96 h, read-out: p24 4 days p.i., % Control) was 100%. For the same compound, the activity at 12.5 µg/mL ([1]; Human immunodeficiency virus 1, 96 h, 12.5 μg/ml, read-out: p24 4 days p.i., % Control) was 100%, the activity at 50 µg/mL ([1]; Human immunodeficiency virus 1, 96 h, 50 μg/ml, read-out: p24 4 days p.i., % Control) was 85% and the activity at 100 µg/mL ([1]; Human immunodeficiency virus 1, 96 h, 100 μg/ml, read-out: p24 4 days p.i., % Control) was 1.6%. It also gave an activity at 200 µM ([1]; Human immunodeficiency virus 1, 144 h, read-out: P24 Antigen % Virus Control) of 1.6%, an activity at 12.5 µg/mL ([1]; Human immunodeficiency virus 1, 144 h, 12.5 μg/ml, read-out: p24 6 days p.i., % Control) of 69% and an activity at 25 µg/mL ([1]; Human immunodeficiency virus 1, 144 h, 25 μg/ml, read-out: p24 6 days p.i., % Control) of 58%. It also gave an activity at 50 µg/mL ([1]; Human immunodeficiency virus 1, 144 h, 50 µg/mL, GB8 in JM cells, day 6 p.i., read-out: P24 Antigen % Virus Control) of 100%, an activity at 50 µg/mL ([1]; Human immunodeficiency virus 1, 144 h, 50 μg/ml, read-out: p24 6 days p.i., % Control) of 11.2% and an activity at 100 µg/mL ([1]; Human immunodeficiency virus 1, 144 h, 100 µg/mL, GB8 in JM cells, day 6 p.i., read-out: P24 Antigen % Virus Control) of 85%. The activity at 100 µg/mL ([1]; Human immunodeficiency virus 1, 144 h, 100 μg/ml, read-out: p24 6 days p.i., % Control) was 1%, the “inhibition of p24 viral core antigen” value [1, 3] was “dose-dependent inhibition” and the “virus-induced multinucleated giant cell formation (syncytia)” value [1, 3] was “suppressed”. For the same compound, the “order of antiviral potency” value ([1]; in all three host cell/virus systems (JM/GB8, C8166/RF, MT-4/RF)) was “DIDS>H2 DIDS>>SITS”, the “syncytia / fusion after pretreatment” value [2] was “failed to block syncytia” and the Plaque counts (HSV 2; 0.1 μg/ml, first count) was 34. For the same compound, the Plaque counts (HSV 2; 0.1 μg/ml, second count) was 26, the Plaque counts (HSV 2; 1 μg/ml, first count) was 28 and the Plaque counts (HSV 2; 1 μg/ml, second count) was 25. It also gave a Plaque counts (HSV 2; 1 μg/ml, third count) of 23, a Plaque counts (HSV 2; 10 μg/ml, first count) of 25 and a Plaque counts (HSV 2; 10 μg/ml, second count) of 25. The Plaque counts (HSV 2; 10 μg/ml, third count) was 24, the Plaque counts (HSV 2; 100 μg/ml, first count) was 16 and the Plaque counts (HSV 2; 100 μg/ml, second count) was 13. The activity at 0.1 µg/mL (HSV 2; read-out: Mean % VC (plaques)) was greater than 100%, the activity at 1 µg/mL (HSV 2; read-out: Mean % VC (plaques)) was 100% and the activity at 10 µg/mL (HSV 2; read-out: Mean % VC (plaques)) was 100%. It also gave an activity at 100 µg/mL (HSV 2; read-out: Mean % VC (plaques)) of 63%.
